Measurements published in US20250098679A1, “HERBICIDAL PYRIDONE DERIVATIVES” (SYNGENTA CROP PROTECTION AG, priority 2021, published 2025).

What was measured:
Type in all cases: in vivo
Conditions in all cases: evaluated after 13 days
Setaria faberi (SETFA) [1] = assay: Pre-emergence Test, Setaria faberi (SETFA)
[2] = system: Echinochloa crus-galli (ECHCG); assay: Pre-emergence Test, Echinochloa crus-galli (ECHCG)
Zea mays (ZEAMX) [3] = assay: Pre-emergence Test, Zea mays (ZEAMX)
[4] = system: Ipomoea hederacea (IPOHE); assay: Pre-emergence Test, Ipomoea hederacea (IPOHE)
[5] = system: Amaranthus palmeri (AMAPA); assay: Pre-emergence Test, Amaranthus palmeri (AMAPA)
[6] = system: Amaranthus retoflexus (AMARE); assay: Pre-emergence Test, Amaranthus retoflexus (AMARE)
Setaria faberi (SETFA) [7] = assay: Post-emergence Test, Setaria faberi (SETFA); design: key to percentage damage caused to the plant, SETFA (five-point scale): 5=81-100%, 4=61-80%, 3=41-60%, 2=21-40%, 1=0-20% damage
Summary of the method: (§1)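 Spray application at 1000 g/ha unless otherwise stated. Damage was scored 13 days later as 1 (0-20%) to 5 (81-100%).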

[8] = system: Echinochloa crus-galli (ECHCG); assay: Post-emergence Test, Echinochloa crus-galli (ECHCG); design: key to percentage damage caused to the plant, ECHCG (five-point scale): 5=81-100%, 4=61-80%, 3=41-60%, 2=21-40%, 1=0-20% damage
Summary of the method: as §1

Zea mays (ZEAMX) [9] = assay: Post-emergence Test, Zea mays (ZEAMX); design: key to percentage damage caused to the plant, ZEAMX (five-point scale): 5=81-100%, 4=61-80%, 3=41-60%, 2=21-40%, 1=0-20% damage
Summary of the method: as §1

[10] = system: Ipomoea hederacea (IPOHE); assay: Post-emergence Test, Ipomoea hederacea (IPOHE); design: key to percentage damage caused to the plant, IPOHE (five-point scale): 5=81-100%, 4=61-80%, 3=41-60%, 2=21-40%, 1=0-20% damage
Summary of the method: as §1

[11] = system: Amaranthus palmeri (AMAPA); assay: Post-emergence Test, Amaranthus palmeri (AMAPA); design: key: 5=81-100%, 4=61-80%, 3=41-60%, 2=21-40%, 1=0-20% damage
Summary of the method: as §1

[12] = system: Amaranthus retoflexus (AMARE); assay: Post-emergence Test, Amaranthus retoflexus (AMARE); design: key to percentage damage caused to the plant, AMARE (five-point scale): 5=81-100%, 4=61-80%, 3=41-60%, 2=21-40%, 1=0-20% damage
Summary of the method: as §1

With `CCOc1cc(C(F)(F)F)nn1Cc1cc(=O)c(C(=O)O)c(-c2ccc(Cl)c(Cl)c2)n1CC` [Compound 148, 2-(3,4-dichlorophenyl)-6-[[5-ethoxy-3-(trifluoromethyl)pyrazol-1-yl]methyl]-1-ethyl-4-oxo-pyridine-3-carboxylic acid] the “Pre-emergence Test SETFA, percentage damage caused to the plant (five-point scale)” value (Setaria faberi (SETFA) [1]; 250 g/Ha (*)) was 2 (2=21-40%), the “Pre-emergence Test SETFA, percentage damage caused to the plant (five-point scale)” value (Setaria faberi (SETFA) [1]; 1000 g/ha) was 5 (5=81-100%) and the “Pre-emergence Test ECHCG, percentage damage caused to the plant (five-point scale)” value ([2]; 250 g/Ha (*)) was 0. The “Pre-emergence Test ECHCG, percentage damage caused to the plant (five-point scale)” value ([2]; 1000 g/ha) was 2 (2=21-40%), the “Pre-emergence Test ZEAMX, percentage damage caused to the plant (five-point scale)” value (Zea mays (ZEAMX) [3]; 250 g/Ha (*)) was 0 and the “Pre-emergence Test ZEAMX, percentage damage caused to the plant (five-point scale)” value (Zea mays (ZEAMX) [3]; 1000 g/ha) was 0. The “Pre-emergence Test IPOHE, percentage damage caused to the plant (five-point scale)” value ([4]; 250 g/Ha (*)) was 0, the “Pre-emergence Test IPOHE, percentage damage caused to the plant (five-point scale)” value ([4]; 1000 g/ha) was 2 (2=21-40%) and the “Pre-emergence Test AMAPA, percentage damage caused to the plant (five-point scale)” value ([5]; 250 g/Ha (*)) was 0. For the same molecule, the “Pre-emergence Test AMAPA, percentage damage caused to the plant (five-point scale)” value ([5]; 1000 g/ha) was 1 (1=0-20%), the “Pre-emergence Test AMARE, percentage damage caused to the plant (five-point scale)” value ([6]; 250 g/Ha (*)) was 0 and the “Pre-emergence Test AMARE, percentage damage caused to the plant (five-point scale)” value ([6]; 1000 g/ha) was 0. The “percentage damage caused to the plant, SETFA (five-point scale)” value (Setaria faberi (SETFA) [7]; 250 g/Ha) was 3 (3=41-60%), the “percentage damage caused to the plant, SETFA (five-point scale)” value (Setaria faberi (SETFA) [7]; 1000 g/ha) was 4 (4=61-80%) and the “percentage damage caused to the plant, ECHCG (five-point scale)” value ([8]; 250 g/Ha) was 2 (2=21-40%). The “percentage damage caused to the plant, ECHCG (five-point scale)” value ([8]; 1000 g/ha) was 4 (4=61-80%), the “percentage damage caused to the plant, ZEAMX (five-point scale)” value (Zea mays (ZEAMX) [9]; 250 g/Ha) was 1 (1=0-20%) and the “percentage damage caused to the plant, ZEAMX (five-point scale)” value (Zea mays (ZEAMX) [9]; 1000 g/ha) was 2 (2=21-40%). For the same molecule, the “percentage damage caused to the plant, IPOHE (five-point scale)” value ([10]; 250 g/Ha) was 2 (2=21-40%), the “percentage damage caused to the plant, IPOHE (five-point scale)” value ([10]; 1000 g/ha) was 2 (2=21-40%) and the “percentage damage caused to the plant, AMAPA (five-point scale)” value ([11]; 250 g/Ha) was 1 (1=0-20%). For the same molecule, the “percentage damage caused to the plant, AMAPA (five-point scale)” value ([11]; 1000 g/ha) was 3 (3=41-60%), the “percentage damage caused to the plant, AMARE (five-point scale)” value ([12]; 250 g/Ha) was 1 (1=0-20%) and the “percentage damage caused to the plant, AMARE (five-point scale)” value ([12]; 1000 g/ha) was 3 (3=41-60%).

With `CCOc1cc(C)nn1Cc1cc(=O)c(C(=O)O)c(-c2ccc(Cl)c(Cl)c2)n1CC` [Compound 149, 2-(3,4-dichlorophenyl)-6-[(5-ethoxy-3-methyl-pyrazol-1-yl)methyl]-1-ethyl-4-oxo-pyridine-3-carboxylic acid] the “Pre-emergence Test SETFA, percentage damage caused to the plant (five-point scale)” value (Setaria faberi (SETFA) [1]; 1000 g/ha) was 4 (4=61-80%), the “Pre-emergence Test ECHCG, percentage damage caused to the plant (five-point scale)” value ([2]; 1000 g/ha) was 1 (1=0-20%) and the “Pre-emergence Test ZEAMX, percentage damage caused to the plant (five-point scale)” value (Zea mays (ZEAMX) [3]; 1000 g/ha) was 0. For the same molecule, the “Pre-emergence Test IPOHE, percentage damage caused to the plant (five-point scale)” value ([4]; 1000 g/ha) was 0, the “Pre-emergence Test AMAPA, percentage damage caused to the plant (five-point scale)” value ([5]; 1000 g/ha) was 3 (3=41-60%) and the “Pre-emergence Test AMARE, percentage damage caused to the plant (five-point scale)” value ([6]; 1000 g/ha) was 1 (1=0-20%). The “percentage damage caused to the plant, SETFA (five-point scale)” value (Setaria faberi (SETFA) [7]; 250 g/Ha) was 1 (1=0-20%), the “percentage damage caused to the plant, SETFA (five-point scale)” value (Setaria faberi (SETFA) [7]; 1000 g/ha) was 3 (3=41-60%) and the “percentage damage caused to the plant, ECHCG (five-point scale)” value ([8]; 250 g/Ha) was 1 (1=0-20%). For the same molecule, the “percentage damage caused to the plant, ECHCG (five-point scale)” value ([8]; 1000 g/ha) was 4 (4=61-80%), the “percentage damage caused to the plant, ZEAMX (five-point scale)” value (Zea mays (ZEAMX) [9]; 250 g/Ha) was 0 and the “percentage damage caused to the plant, ZEAMX (five-point scale)” value (Zea mays (ZEAMX) [9]; 1000 g/ha) was 2 (2=21-40%). For the same molecule, the “percentage damage caused to the plant, IPOHE (five-point scale)” value ([10]; 250 g/Ha) was 1 (1=0-20%), the “percentage damage caused to the plant, IPOHE (five-point scale)” value ([10]; 1000 g/ha) was 2 (2=21-40%) and the “percentage damage caused to the plant, AMAPA (five-point scale)” value ([11]; 250 g/Ha) was 0. The “percentage damage caused to the plant, AMAPA (five-point scale)” value ([11]; 1000 g/ha) was 1 (1=0-20%), the “percentage damage caused to the plant, AMARE (five-point scale)” value ([12]; 250 g/Ha) was 0 and the “percentage damage caused to the plant, AMARE (five-point scale)” value ([12]; 1000 g/ha) was 2 (2=21-40%).
